Patent publication US20110111115A1, “REBAUDIOSIDE A POLYMORPHS AND METHODS TO PREPARE THEM” (priority 2009, published 2011)

Test: Solubility in water of the rebaudioside A polymorph
Type: physicochemical
Settings: 25° C.

- solubility in water: about 1.5 mg/ml
SMILES: C=C1C[C@@]23CC[C@H]4[C@@](C)(CCC[C@@]4(C)C(=O)O[C@@H]4O[C@H](CO)[C@@H](O)[C@H](O)[C@H]4O)[C@@H]2CC[C@]1(O[C@@H]1O[C@H](CO)[C@@H](O)[C@H](O[C@@H]2O[C@H](CO)[C@@H](O)[C@H](O)[C@H]2O)[C@H]1O[C@@H]1O[C@H](CO)[C@@H](O)[C@H](O)[C@H]1O)C3 [rebaudioside A polymorph, rebaudioside A]
